Results from patent US12295970B2, “Imidazoquinoline compounds and prodrugs thereof” (UNIVERSITY OF KANSAS, priority 2019, dated 2025).

Biological target: T1, hTLR8 (Homo sapiens, UniProt Q9NR97)
T1 construct: host or cells: HEK293 (HEK-Blue hTLR8)
T1 sequence (Q9NR97 27-1041): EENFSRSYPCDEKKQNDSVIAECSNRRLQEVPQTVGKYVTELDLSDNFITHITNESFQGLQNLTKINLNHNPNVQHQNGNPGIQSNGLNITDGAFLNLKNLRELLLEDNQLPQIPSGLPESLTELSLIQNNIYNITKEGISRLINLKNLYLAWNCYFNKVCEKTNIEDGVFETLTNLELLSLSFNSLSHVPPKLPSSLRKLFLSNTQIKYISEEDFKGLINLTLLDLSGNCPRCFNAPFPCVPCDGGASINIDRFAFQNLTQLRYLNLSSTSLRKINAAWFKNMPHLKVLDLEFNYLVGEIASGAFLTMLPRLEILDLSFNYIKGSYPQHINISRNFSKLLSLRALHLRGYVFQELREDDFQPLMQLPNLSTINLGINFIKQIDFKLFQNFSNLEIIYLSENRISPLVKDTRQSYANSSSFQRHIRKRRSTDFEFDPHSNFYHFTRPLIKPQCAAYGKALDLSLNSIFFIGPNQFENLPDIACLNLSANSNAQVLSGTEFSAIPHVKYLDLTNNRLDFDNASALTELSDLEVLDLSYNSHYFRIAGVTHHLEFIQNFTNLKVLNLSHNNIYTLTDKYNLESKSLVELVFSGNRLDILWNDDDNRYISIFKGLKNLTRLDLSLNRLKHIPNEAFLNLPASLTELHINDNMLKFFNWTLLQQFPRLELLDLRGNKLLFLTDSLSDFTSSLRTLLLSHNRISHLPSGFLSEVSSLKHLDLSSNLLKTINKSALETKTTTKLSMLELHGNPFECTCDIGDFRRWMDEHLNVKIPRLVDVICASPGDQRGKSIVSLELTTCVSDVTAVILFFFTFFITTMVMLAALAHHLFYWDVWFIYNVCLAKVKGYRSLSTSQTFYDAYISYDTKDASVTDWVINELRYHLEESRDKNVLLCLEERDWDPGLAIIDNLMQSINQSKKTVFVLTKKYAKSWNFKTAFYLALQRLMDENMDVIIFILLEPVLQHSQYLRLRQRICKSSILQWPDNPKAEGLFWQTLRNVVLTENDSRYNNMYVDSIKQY
Assay: SEAP reporter assay for hTLR-8 activity (HEK-Blue hTLR8 cells)
Assay type: cell-based
Protocol: TLR activation induces NF-κB production and subsequent SEAP secretion, which is measured using HEK-Detection media (InvivoGen) containing a colorimetric substrate for SEAP (UV-Vis, 637 nm).
The experiments followed manufacturer protocol as follows: SEAP levels were measured via absorbance at 637 nm using HEK-Blue Detection cell culture medium (InvivoGen), which contains a SEAP-specific colorimetric substrate. Compound stock solutions were first diluted in sterile DMSO at a concentration of 10 mM. Lower concentrations were prepared by serial dilution of the initial 10 mM stock samples into sterile DMSO and these solutions (22 μL) were subsequently diluted into sterile H2O (198 μL) using a BioTek Precision XS pipetting system. HEK-Blue hTLR7, HEK-Blue hTLR8, Null 1−k, and Null 1 cell suspensions in sterile HEK-Blue Detection medium were prepared at a density of 220,000 cells per mL. Clear bottom, 96-well tissue culture treated plates (Corning) were seeded with hTLR7 and Null 1−k or hTLR8 and Null 1 cell suspensions (180 μL/well), after which 20 μL of the various sample concentrations in 10% v/v DMSO/H2O were added (20 μL) in quadruplicate wells to yield the desired testing concentration in 1% v/v DMSO cell suspension. Plates were incubated at 37° C. and 5% CO2 in the dark. Absorbance measurements were taken at 637 nm at 12 hours, 4 replicates per concentration point, per cell line (hTLR7, hTLR8, Null 1−k, Null 1). Three independent measurements on different days were performed for each analog.
Corresponding well absorbance values for each concentration tested were averaged with respect to days tested, and the average relative NF-κB induction (UV-Vis, 637 nm) of the null cell lines (Null 1-k or Null 1) were subtracted from the respective average TLR expressing cell line (hTLR7 or hTLR8) absorbance averages. […] The three independent, normalized averages for each analog were then pooled, and the data was fit using the Hill-Slope model (GraphPad Prism v7.0) using the non-linear fit from the [Agonist] vs. response—Variable Slope (four parameters) with a hill slope constrained to less than 3.

SMILES: CCOCc1nc2c(N)nc3ccccc3c2n1CC(C)(C)O [Compound 2, resiquimod, reference compound]
- agonist for TLR8 receptor (in words): agonists
